Like-named read-outs stand apart in the source and are kept apart here.

In data set [1] the test system is peripheral blood mononuclear cells (PBMCs). Put plainly: Cytotoxicity in PBMCs (MTS assay). The data set is classed as cell-based, human. The settings on record: read-out: TC50: 50% cytoxicity (MTS). On the procedure:
(§1) The activity of the certain compounds of the invention was evaluated in peripheral blood mononuclear cells (PBMCs) infected with the low passage, clinical isolate HIV-1 ROJO to generate a measure of the efficacy of these compounds in acutely infected cells. The use of these normal human cells allows an estimate of the therapeutic index of these compounds to be made. Fresh PBMCs from two donors were pooled and stimulated with PHA-P for 48-72 hours. The cells were then cultured in the presence of IL-2 to maintain the cell division initiated by the mitogenic signal. The virus was added at a multiplicity of infection of 0.1. The cells were cultured for 7 days post infection prior to the evaluation of efficacy. Viral replication was measured by the level of reverse transcriptase activity in the supernatant and cytotoxicity was measured with the MTS assay.

The test system of the next data set is HIV-1 ROJO. Put plainly: Antiviral activity in PBMCs infected with HIV-1 ROJO (reverse transcriptase). The data set is classed as cell-based. On the procedure: as §1
In data set [2] the target is protein kinase C (mixed isozymes). Put plainly: Protein kinase C TCA precipitation assay. It is filed as biochemical, rat. The following applies: Table 5; read-out: PKC IC50. On the procedure: Enzymes: Cdc2/cyclin B was obtained from commercial sources. Cdk2/his-cyclin Eshort was expressed in Sf9 cells. Cdk2/cyclin A, cdk4/cyclin D1, and cdk6/cyclin D2 were expressed in Sf9 cells. Protein kinase A (catalytic subunit, from bovine heart) and protein kinase C (mixed isozymes from rat brain) were obtained from commercial sources.
Protein kinase C and protein kinase A were assayed using a TCA precipitation assay with Histone H1 as a substrate. For protein kinase A, the final assay contained 50 mM Tris, 10 mM MgCl2, 1 mM dithiothreitol, pH 7.5, 12 μM adenosine triphosphate, 10% (v/v) dimethylsulfoxide (from compounds), 20 μg Histone H1, 2 μCi [γ-^32P] adenosine triphosphate, 0.2 U protein kinase A in a 100 μL assay. A protein kinase C assay contained 50 mM Tris, 10 mM MgCl2, 1 mM dithiothreitol, 0.8 mM CaCl2, pH 7.5, 5 μM adenosine triphosphate, 10% (v/v) dimethylsulfoxide (from compounds), 20 μg Histone H1, 2 μCi [γ-^32P] adenosine triphosphate, 0.01 U protein kinase C in a 50 μL assay. The assays were started by the addition of enzyme, allowed to react for 10 min at 30° C., and stopped by adding 0.4 volumes of 237 mM disodium ethylenediamine tetraacetate, 105 mM adenosine triphosphate, pH 8.0. […] The filters were washed ten times with 25% (w/v) trichloroacetic acid, and the amount of incorporated [^32P]phosphate was determined by adding 100 μl Microscint and scintillation counting.

The next data set concerns arrested HCT-116 cells. In words: Arrested cell assay, arrested HCT-116 tumor cells. The data set is classed as cell-based. The settings on record: Homo sapiens, serum-starved arrested cells, 72 hours, read-out: Arrested cell assay HCT IC50. On the procedure:
(§2) Cyclin-dependent kinase (Cdk) activity is required to promote the progression of cells through distinct phases of the cell division cycle. The proliferation of normal, non-transformed, cells in culture requires the presence of growth factors, the removal of which, through serum deprivation, leads to a loss of Cdk activity and consequent exit from the cell cycle as cells enter the quiescent phase, G0.
HCT-116 cells were plated in triplicate for each compound concentration to be tested in RPMI 1640 media containing 10% fetal calf serum at a density of either 200 or 2,000 cells per well in 24 well dishes, and incubated overnight at 37° C., 5% CO2. The media from the plate containing 2,000 cells per well was removed, cells were washed once with serum free media and 1 ml of serum free media was placed on cells. The plates containing cells both in the presence and absence of serum were incubated for 6 additional days.
(§3) The cells are incubated in the presence of the compounds for 72 hours (3 days) at 37° C. […] Cycling and arrested HCT-116 cells as well as cycling IMR90 cells were exposed to a panel of 6 doses ranging from 5 to 250 nM. For arrested normal cells, the range of doses was increased to 50 nM to 25 μM, to compensate for the expected decrease in activity.
(§4) The effect of 72 hours of compound exposure on cellular viability was assessed in the Calcein AM assay. Calcein AM is a fluorescent substrate of intracellular esterases that are only active in viable cells. Cleavage of the substrate thus provides a measure of viability, which is proportional to cell number.
(§5) A Calcein AM stock solution was prepared by dissolving a 50 μg aliquot (Molecular Probes catalogue # C3100) in 50 μl DMSO. The tube was incubated at room temperature for approximately 10 minutes to ensure that the Calcein had dissolved completely. The calcein was diluted into 10 ml PBS to prepare the final solution, which was protected from light.
(§6) The media was aspirated off the cells, which were then washed twice with 1 ml PBS to remove the PBS completely from cells by aspiration. 0.5 ml of the Calcein/PBS solution was transferred by pipette into each well. The plates were incubated at 37° C. for 75 minutes (protected from light) and read on a fluorescent plate reader (excitation 485/20 and emission 530/25).

Another data set deals with HCT-116 cells. In words: BrdU incorporation assay. The following applies: Homo sapiens, read-out: Brd U, concentration that inhibits BrdU incorporation by 50%. The data set is classed as cell-based. On the procedure: This method measured the percentage of cells that incorporated the nucleotide analog, BrdU, into newly synthesized DNA as cells progressed through the S phase of the cell cycle. The inhibition of BrdU incorporation was used as a measure of a Cdk inhibitor's effect on S phase progression and DNA replication.
3 sets of HCT-116 cells (100,000 cells/set) were plated in T25 flasks and incubated with a test compound as above. Analysis was done at 24, 48, and 72 hours. BrdU was added to each T-25 flask from a stock of 10 mg/ml to a final concentration of 10 μM and the cells were incubated for an additional 16-18 hours at 37° C. The cells were then prepared for flow cytometric analysis according to manufacturer's protocol (BrdU Flow kit, BD-Pharmingen catalogue #2354KK) as follows:
Cells were harvested (adherent and floating) from the T25 flasks directly into Falcon 12×75 flow cytometric tubes as above followed by fixation and permeabilization with the addition of 100 μl of Cytofix/Cytoperm buffer (30 minutes, room temperature). The cells were then washed with 1 ml of Perm Wash buffer and the cell pellets were resuspended in 100 μl Cytoperm Plus buffer and incubated on ice for 10 minutes. The cells were then washed again with 1 ml of Perm Wash buffer and the fixation was repeated in 100 μl of Cytofix/Cyto Perm buffer for 10 minutes at room temperature. The cells were then washed with 1 ml of Perm Wash buffer. The cells were next treated for one hour at 37° C. with 100 μl DNase to expose incorporated BrdU followed by another wash step with 1 ml of Perm Wash buffer. […] Cells were protected from light and incubated at room temperature for 20-30 minutes. Following the incubation, the cells were washed with 1 ml of Perm Wash buffer, resuspended in 300 μl of 2% FBS in PBS, and analyzed on the flow cytometer. Results are presented in Table 2 as the concentration of compound (μM) that inhibits of BrdU incorporation by 50%.

The test system of another data set is arrested IMR90 cells. Put plainly: Arrested cell assay, arrested IMR90 normal cells. The data set is classed as cell-based. The following applies: Homo sapiens, IMR-90; serum-starved arrested cells, 72 hours; read-out: Arrested cell assay IMR90 IC50. On the procedure:
as §2
IMR90 cells were plated in triplicate for each compound concentration to be tested in MEM-A media containing 10% fetal calf serum at a density of either 2,000 or 20,000 cells per well in 24-well dishes and incubated overnight at 37° C., 5% CO2. The media was removed from the 20,000 cell-per-well dish, cells were washed once with serum-free media, and serum-free media was placed on cells. The plates containing cells both in the presence and absence of serum were incubated for 3 additional days.
as §3, §4, §5, §6

Take `Cc1cn([C@H]2C[C@H](N=[N+]=[N-])[C@@H](CO)O2)c(=O)[nH]c1=O` [AZT, reference compound]: the CC50 in data set [1] is over 1000 nM. The “TI: TC50/IC50” value in the data set with HIV-1 ROJO is listed as over 100. Besides, in the data set with HIV-1 ROJO (read-out: IC50: 50% inhibition of virus replication measured by reverse transcriptase levels in the supernatant, HIV-1 ROJO, 7 days post infection), the IC50 was under 10 nM.
Regarding `CC(C)N1CCN(CCOc2ccc(-c3[nH]nc4c3C(=O)c3c(NC(=O)NN5CCOCC5)cccc3-4)cc2)CC1` [E], the IC50 in data set [2] is under 10000 nM; with arrested HCT-116 cells, under 100 nM; in the data set on HCT-116 cells (HCT-116, 24 h), under 10 nM; with HCT-116 cells (HCT-116, 48 h) it was under 100 nM; in the data set with arrested IMR90 cells it was over 100 nM.

The values above are taken from patent US7605175B2, “Inhibitors of cyclin-dependent kinases, compositions and uses related thereto” (GPC Biotech AG, priority 2001, dated 2009).
